{"source": "patent US11708348B2", "about": "“Protease inhibitors for treatment of coronavirus infections” (The Scripps Research Institute, priority 2021, dated 2023)", "tested_on": "SARS-CoV-2 strain USA-WA1/2020", "assay": "microbe, parasite or virus in culture", "format": "cell-based", "conditions": "Severe acute respiratory syndrome coronavirus 2, HeLa-ACE2, 24 h, read-out: EC50, uM (Hela)", "key": {"[1]": {"conditions": "HeLa-ACE2 cells, SARS-CoV-2 infection, 24 h, class symbols"}, "[2]": {"conditions": "HeLa-ACE2 cells, SARS-CoV-2 infection, 24 h"}, "[3]": {"conditions": "HeLa-ACE2 cells, SARS-CoV-2 infection, 24 h, cells given as a bound"}}, "note": "Where two headings read alike, the source gives them in different places."}
{"molecule": "O=C(Nc1ccccc1F)C(=O)N[C@@H](CC1CCCC1(F)F)C(=O)N[C@@H](C[C@@H]1CCNC1=O)C(=O)COC(F)(F)F", "note": "(stereo partly drawn) [Compound 227, N1-((2S)-3-(2,2-difluoro-cyclopentyl)-1-oxo-1-(((S)-3-oxo-1-((S)-2-oxopyrrolidin-3-yl)-4-(trifluoromethoxy)butan-2-yl)amino)propan-2-yl)-N2-(2-fluorophenyl)-oxalamide]", "values": [{"measurement": "EC50", "setting": "[1]", "value": "< 0.05", "unit": "µM"}]}
{"molecule": "O=C1NCC[C@H]1C[C@H](NC(=O)[C@@H]1CC2(CC2)CN1C(=O)COc1ccc(OC(F)(F)F)cc1)C(=O)COC(F)(F)F", "note": "[Compound 773, (S)-N-((S)-3-oxo-1-((S)-2-oxopyrrolidin-3-yl)-4-(trifluoromethoxy)butan-2-yl)-5-(2-(4-(trifluoromethoxy)phenoxy)acetyl)-5-azaspiro[2.4]heptane-6-carboxamide]", "values": [{"measurement": "EC50", "setting": "[2]", "value": "< 0.05", "unit": "µM"}]}
{"molecule": "Cc1ccc(NC(=O)C(=O)N[C@@H](CC(C)C)C(=O)N[C@@H](C[C@@H]2CCNC2=O)C(=O)COc2c(F)c(F)cc(F)c2F)c(F)c1", "note": "[Compound 68, N1-(2-fluoro-4-methylphenyl)-N2-((S)-4-methyl-1-oxo-1-(((S)-3-oxo-1-((S)-2-oxopyrrolidin-3-yl)-4-(2,3,5,6-tetrafluorophenoxy)butan-2-yl)amino)pentan-2-yl)oxalamide]", "values": [{"measurement": "EC50", "setting": "[1]", "value": "< 0.05", "unit": "µM"}]}
{"molecule": "CC(C)C[C@H](NC(=O)c1c[nH]c2cccnc12)C(=O)N[C@@H](C[C@@H]1CCNC1=O)C(=O)COC(F)(F)F", "note": "[Compound 263, N-((S)-4-methyl-1-oxo-1-(((S)-3-oxo-1-((S)-2-oxopyrrolidin-3-yl)-4-(trifluoromethoxy)butan-2-yl)amino)pentan-2-yl)-1H-pyrrolo[3,2-b]pyridine-3-carboxamide]", "values": [{"measurement": "EC50", "setting": "[1]", "value": "0.2 to 0.5", "unit": "µM"}]}
{"molecule": "CC(C)C[C@H](NC(=O)c1c[nH]c2ncccc12)C(=O)N[C@@H](C[C@@H]1CCNC1=O)C(=O)COC(F)(F)F", "note": "[Compound 249, N-((S)-4-methyl-1-oxo-1-(((S)-3-oxo-1-((S)-2-oxopyrrolidin-3-yl)-4-(trifluoromethoxy)butan-2-yl)amino)pentan-2-yl)-1H-pyrrolo[2,3-b]pyridine-3-carboxamide]", "values": [{"measurement": "EC50", "setting": "[1]", "value": "0.2 to 0.5", "unit": "µM"}]}
{"molecule": "CC(C)C[C@H](NC(=O)OC1CCCC1)C(=O)N[C@@H](C[C@@H]1CCNC1=O)C(=O)COc1c(F)c(F)cc(F)c1F", "note": "[Compound 21, cyclopentyl ((S)-4-methyl-1-oxo-1-(((S)-3-oxo-1-((S)-2-oxopyrrolidin-3-yl)-4-(2,3,5,6-tetrafluorophenoxy)butan-2-yl)amino)pentan-2-yl)carbamate]", "values": [{"measurement": "EC50", "setting": "[3]", "value": "> 1", "unit": "µM"}]}
{"molecule": "CCNC(=O)C(=O)N1CC2(CC2)C[C@H]1C(=O)N[C@@H](C[C@@H]1CCNC1=O)C(=O)COC(F)(F)F", "note": "[Compound 749, (S)-5-(2-(ethylamino)-2-oxoacetyl)-N-((S)-3-oxo-1-((S)-2-oxopyrrolidin-3-yl)-4-(trifluoromethoxy)butan-2-yl)-5-azaspiro[2.4]heptane-6-carboxamide]", "values": [{"measurement": "EC50", "setting": "[2]", "value": "0.05 to 0.2", "unit": "µM"}]}
{"molecule": "O=C1NCC[C@H]1C[C@H](NC(=O)[C@@H]1CC2(CC2)CN1C(=O)[C@H](O)c1ccc(F)cc1)C(=O)COC(F)(F)F", "note": "[Compound 403, (S)-5-((R)-2-(4-fluorophenyl)-2-hydroxyacetyl)-N-((S)-3-oxo-1-((S)-2-oxopyrrolidin-3-yl)-4-(trifluoromethoxy)butan-2-yl)-5-azaspiro[2.4]heptane-6-carboxamide]", "values": [{"measurement": "EC50", "setting": "[2]", "value": "0.05 to 0.2", "unit": "µM"}]}
{"molecule": "CC(C)C[C@H](NC(=O)C(=O)NC1(C)CC1)C(=O)N[C@@H](C[C@@H]1CCNC1=O)C(=O)COC(F)(F)F", "note": "[Compound 217, N1-((S)-4-methyl-1-oxo-1-(((S)-3-oxo-1-((S)-2-oxopyrrolidin-3-yl)-4-(trifluoromethoxy)butan-2-yl)amino)pentan-2-yl)-N2-(1-methylcyclopropyl)-oxalamide]", "values": [{"measurement": "EC50", "setting": "[1]", "value": "< 0.05", "unit": "µM"}]}
{"molecule": "CC(C)(C)NC(=O)C(=O)N1C[C@@H]2C[C@@H]2[C@H]1C(=O)N[C@@H](C[C@@H]1CCNC1=O)C(=O)COC(F)(F)F", "note": "[Compound 493, (1S,2S,5R)-3-(2-(tert-butylamino)-2-oxoacetyl)-N-((S)-3-oxo-1-((S)-2-oxopyrrolidin-3-yl)-4-(trifluoromethoxy)butan-2-yl)-3-azabicyclo[3.1.0]-hexane-2-carboxamide]", "values": [{"measurement": "EC50", "setting": "[2]", "value": "0.2 to 0.5", "unit": "µM"}]}
{"molecule": "CC(C)CC(C)(O)C(=O)N1CC2(CC2)C[C@H]1C(=O)N[C@@H](C[C@@H]1CCNC1=O)C(=O)COC(F)(F)F", "note": "(stereo partly drawn) [Compound 360, (6S)-5-(2-hydroxy-2,4-dimethylpentanoyl)-N-((S)-3-oxo-1-((S)-2-oxopyrrolidin-3-yl)-4-(trifluoromethoxy)butan-2-yl)-5-azaspiro[2.4]-heptane-6-carboxamide]", "values": [{"measurement": "EC50", "setting": "[1]", "value": "< 0.05", "unit": "µM"}]}
{"molecule": "COc1cccc2[nH]c(C(=O)N[C@@H](CC(C)C)C(=O)N[C@@H](C[C@@H]3CCNC3=O)C(=O)COC(C(F)F)C(F)F)cc12", "note": "[Compound 178, 4-methoxy-N-((S)-4-methyl-1-oxo-1-(((S)-3-oxo-1-((S)-2-oxopyrrolidin-3-yl)-4-((1,1,3,3-tetrafluoropropan-2-yl)oxy)butan-2-yl)amino)pentan-2-yl)-1H-indole-2-carboxamide]", "values": [{"measurement": "EC50", "setting": "[3]", "value": "> 1", "unit": "µM"}]}
{"molecule": "CC(C)C[C@H](NC(=O)C(=O)Nc1ccc(Cl)cc1)C(=O)N[C@@H](C[C@@H]1CCNC1=O)C(=O)COc1c(F)c(F)cc(F)c1F", "note": "[Compound 39, N1-(4-chlorophenyl)-N2-((S)-4-methyl-1-oxo-1-(((S)-3-oxo-1-((S)-2-oxopyrrolidin-3-yl)-4-(2,3,5,6-tetrafluorophenoxy)butan-2-yl)amino)pentan-2-yl)oxalamide]", "values": [{"measurement": "EC50", "setting": "[1]", "value": "0.05 to 0.2", "unit": "µM"}]}
{"molecule": "O=C1NCC[C@H]1C[C@H](NC(=O)[C@@H]1CC2(CC2)CN1C(=O)[C@H](O)CF)C(=O)COC(F)(F)F", "note": "[Compound 397, (S)-5-((S)-3-fluoro-2-hydroxypropanoyl)-N-((S)-3-oxo-1-((S)-2-oxopyrrolidin-3-yl)-4-(trifluoromethoxy)butan-2-yl)-5-azaspiro[2.4]heptane-6-carboxamide]", "values": [{"measurement": "EC50", "setting": "[1]", "value": "0.05 to 0.2", "unit": "µM"}]}
{"molecule": "CC(C)C[C@H](NC(=O)C(=O)Nc1ccccc1F)C(=O)N[C@@H](C[C@@H]1CCNC1=O)C(=O)COP(C)(=O)c1ccccc1", "note": "(stereo partly drawn) [Compound 651, (S)-3-((S)-2-(2-((2-fluorophenyl)amino)-2-oxoacetamido)-4-methylpentanamido)-2-oxo-4-((S)-2-oxopyrrolidin-3-yl)butyl methyl(phenyl)phosphinate]", "values": [{"measurement": "EC50", "value": "0.05 to 0.2", "unit": "µM"}]}
{"molecule": "COc1ccc(C(C)=O)cc1CC(=O)N[C@@H](CC(C)C)C(=O)N[C@@H](C[C@@H]1CCNC1=O)C(=O)COc1c(F)c(F)cc(F)c1F", "note": "[Compound 154, (S)-2-(2-(5-acetyl-2-methoxyphenyl)acetamido)-4-methyl-N—((S)-3-oxo-1-((S)-2-oxopyrrolidin-3-yl)-4-(2,3,5,6-tetrafluorophenoxy)butan-2-yl)pentanamide]", "values": [{"measurement": "EC50", "setting": "[1]", "value": "< 0.05", "unit": "µM"}]}
{"molecule": "CC(C)C[C@H](NC(=O)C(=O)NC1(C)CC1)C(=O)N[C@@H](C[C@@H]1CCCNC1=O)C(=O)COC(F)(F)F", "note": "[Compound 245, N1-((S)-4-methyl-1-oxo-1-(((S)-3-oxo-1-((S)-2-oxopiperidin-3-yl)-4-(trifluoromethoxy)butan-2-yl)amino)pentan-2-yl)-N2-(1-methylcyclo-propyl)oxalamide]", "values": [{"measurement": "EC50", "setting": "[1]", "value": "< 0.05", "unit": "µM"}]}
{"molecule": "O=C1NCC[C@H]1C[C@H](NC(=O)[C@@H]1CC2(CC2)CN1C(=O)C1(O)CCC(F)(F)CC1)C(=O)COC(F)(F)F", "note": "[Compound 421, (S)-5-(4,4-difluoro-1-hydroxycyclohexane-1-carbonyl)-N—((S)-3-oxo-1-((S)-2-oxopyrrolidin-3-yl)-4-(trifluoromethoxy)butan-2-yl)-5-azaspiro[2.4]heptane-6-carboxamide]", "values": [{"measurement": "EC50", "setting": "[2]", "value": "< 0.05", "unit": "µM"}]}
{"molecule": "CC1(NC(=O)C(=O)N[C@@H](Cc2ccc(F)cc2)C(=O)N[C@@H](C[C@@H]2CCNC2=O)C(=O)COC(F)(F)F)CC1", "note": "[Compound 250, N1-((S)-3-(4-fluorophenyl)-1-oxo-1-(((S)-3-oxo-1-((S)-2-oxopyrrolidin-3-yl)-4-(trifluoromethoxy)butan-2-yl)amino)propan-2-yl)-N2-(1-methylcyclopropyl)-oxalamide]", "values": [{"measurement": "EC50", "setting": "[1]", "value": "< 0.05", "unit": "µM"}]}
{"molecule": "Cc1ccccc1NC(=O)C(=O)N[C@@H](CC1CC1)C(=O)N[C@@H](C[C@@H]1CCNC1=O)C(=O)COc1c(F)c(F)cc(F)c1F", "note": "[Compound 116, N1-((S)-3-cyclopropyl-1-oxo-1-(((S)-3-oxo-1-((S)-2-oxopyrrolidin-3-yl)-4-(2,3,5,6-tetrafluorophenoxy)butan-2-yl)amino)propan-2-yl)-N2-(o-tolyl)oxalamide]", "values": [{"measurement": "EC50", "setting": "[1]", "value": "< 0.05", "unit": "µM"}]}
{"molecule": "O=C1NCC[C@H]1C[C@H](NC(=O)[C@@H]1CC2(CC2)CN1C(=O)C1(O)CCC(C(F)(F)F)CC1)C(=O)COC(F)(F)F", "note": "(stereo partly drawn) [Compound 649, (S)-5-(l-hydroxy-4-(trifluoromethyl)cyclohexane-1-carbonyl)-N-((S)-3-oxo-1-((S)-2-oxopyrrolidin-3-yl)-4-(trifluoromethoxy)butan-2-yl)-5-azaspiro[2.4]heptane-6-carboxamide]", "values": [{"measurement": "EC50", "setting": "[2]", "value": "0.05 to 0.2", "unit": "µM"}]}
{"molecule": "COc1ccccc1NC(=O)C(=O)N[C@@H](CC(C)C)C(=O)N[C@@H](C[C@@H]1CCNC1=O)C(=O)COc1c(F)c(F)cc(F)c1F", "note": "[Compound 112, N1-(2-methoxyphenyl)-N2-((S)-4-methyl-1-oxo-1-(((S)-3-oxo-1-((S)-2-oxopyrrolidin-3-yl)-4-(2,3,5,6-tetrafluorophenoxy)butan-2-yl)amino)pentan-2-yl)oxalamide]", "values": [{"measurement": "EC50", "setting": "[1]", "value": "0.05 to 0.2", "unit": "µM"}]}
{"molecule": "CC(C)(C)NC(=O)C(=O)NC(CC1CCOCC1)C(=O)N[C@@H](C[C@@H]1CCNC1=O)C(=O)COC(F)(F)F", "note": "(stereo partly drawn) [Compound 181, N1-(tert-butyl)-N2-(l-oxo-1-(((S)-3-oxo-l-((S)-2-oxopyrrolidin-3-yl)-4-(trifluoromethoxy)butan-2-yl)amino)-3-(tetrahydro-2H-pyran-4-yl)propan-2-yl)oxalamide]", "values": [{"measurement": "EC50", "setting": "[1]", "value": "0.2 to 0.5", "unit": "µM"}]}
